Columns and labels:
[1] = tested on: white blood cells of kidney cancer patient; assay: Clinical case (B): chemotherapy with a platinum compound and MEK, white blood cells analyzed by cell sorter; type: in vivo, human; details: A person; for Total T (CD3+), Percent: kidney cancer, normal 59.4-84.6; for Total T (CD3+), Percent / T Helper (CD3+, CD4+), Cell Number/μl / T Suppressor (CD3+, CD8+), Cell Number/μl / Total B (CD19+), Cell Number/μl / Total NK (CD16+/CD56+), Cell Number/μl / Total T (CD3+), Cell Number/μl / Ratio T Helper Cells/ CD3, CD4/CD3, CD8 / Total NK (CD16+/CD56+), Percent / Total B (CD19+), Percent / T Suppressor (CD3+, CD8+), Percent / T Helper (CD3+, CD4+), Percent / Lymphocytes T + B + NK, Percent: platinum compound + MEK; for Ratio T Helper Cells/ CD3, CD4/CD3, CD8: normal 0.9-3.6; for Total NK (CD16+/CD56+), Percent: normal 5.6-40.9; for Total B (CD19+), Percent: normal 6.4-22.6; for T Suppressor (CD3+, CD8+), Percent: normal 11.1-38.3; for T Helper (CD3+, CD4+), Percent: normal 28.5-60.5; for Lymphocytes T + B + NK, Percent: normal 95.0-105.0
Experimental: (B) A patient was diagnosed with a kidney cancer and was treated with chemotherapy with a platinum compound and MEK for about two months (July and August 2005). […] a person's white blood cells after analyzed by the cell sorter are presented as follows: […]

[2] = tested on: patient with metastasized cancer of the "small saliva gland"
Experimental: (A) A patient of was a physician in the radiation department. They were diagnosed to have cancer of the “small saliva gland” in 1996. After radiation therapy, the tumor was removed by surgery. In 2001 it was discovered that the tumor had metastasized to their left lung and they went through a second surgery in the lung. In December of 2004, the metastasis extended into the chest, diaphragm and bone and multiple sites in the lung. They were treated with regional radiation and “immuno-therapy”. Starting in the middle of December, they were given MEK intravenously (IV) at a dose of 30 μg/kg bodyweight three times per week for one month. In the next month, they were given one administration of MEK each week at 40 μg/kg. Thereafter, one injection was done for each month at 120 μg/kg for the next 5 months.

[3] = tested on: patients' immune cells; assay: Clinical (C): MEK therapy in a group of 19 cancer patients, analysis of patients' immune cells (FACS Calibur); type: in vivo, human; details: for Total NK (CD16+CD56) Natural killer cells, Cells/μl / Total T Cells, Cells/μl / CD4/CD3(CD8) / Total NK (CD16+CD56) Natural killer cells, in percent of total / Total T Cells, in percent of total / Total Lymphocytes (T+B+NK), in percent of total: average of 19 patients; for Total NK (CD16+CD56) Natural killer cells, Cells/μl / Total T Cells, in percent of total: before MEK 61; for Total T Cells, Cells/μl: before MEK 367; for CD4/CD3(CD8): normal 0.9-3.6, before MEK 0.61; for Total NK (CD16+CD56) Natural killer cells, in percent of total: normal 5.6-30.9, before MEK 16; for Total T Cells, in percent of total: normal range 59.5-84.6; for Total Lymphocytes (T+B+NK), in percent of total: normal range 95.0-105.0, before MEK 87
Experimental: (C) Therapy in group of patients: (1) Total patient number: 19 (2) Cancer category: colon cancer—8; ovary cancer—5; lung cancer—4; salivary gland cancer—1; stomach cancer—1. 12 patients were given MEK 3 weeks after chemotherapy; the other 7 patients were not treated with chemotherapy. (3) Schedule of MEK administration: First week—10˜30 μg/kg, daily IV (total 7 administrations per week); Second week—20˜40 μg/kg, ever other day IV (total 3 administrations per week); Third week—30˜50 μg/kg, once every three days, IV (total 2 administrations per week). (4) Thereafter, one administration each month, 100˜130 μg/kg for 6 months. (5) Observation Indicator: analysis of patients' immune cells. (6) Equipment used: Cytometer—FACS Calibur; Software—Simul Set V3.1. (7) Results (in average values):
In the above data, “after MEK” refers to after the end of MEK treatment.

What does the source list for Methionine enkephalin [MEK]?
Total T (CD3+), Percent ([1]; Aug 12): 74%; Total T (CD3+), Percent ([1]; Jul 14): 70%; T Helper (CD3+, CD4+), Cell Number/μl ([1]; Aug 12): 447 Cell Number/μl; T Suppressor (CD3+, CD8+), Cell Number/μl ([1]; Aug 12): 931 Cell Number/μl; Total B (CD19+), Cell Number/μl ([1]; Aug 12): 74 Cell Number/μl; Total NK (CD16+/CD56+), Cell Number/μl ([1]; Aug 12): 447 Cell Number/μl; Total T (CD3+), Cell Number/μl ([1]; Aug 12): 1368 Cell Number/μl; Ratio T Helper Cells/ CD3, CD4/CD3, CD8 ([1]; Aug 12): 0.48; Total NK (CD16+/CD56+), Percent ([1]; Aug 12): 24%; Total B (CD19+), Percent ([1]; Aug 12): 4%; T Suppressor (CD3+, CD8+), Percent ([1]; Aug 12): 50%; T Helper (CD3+, CD4+), Percent ([1]; Aug 12): 24%; Lymphocytes T + B + NK, Percent ([1]; Aug 12): 102%; T Helper (CD3+, CD4+), Cell Number/μl ([1]; Jul 14): 569 Cell Number/μl; T Suppressor (CD3+, CD8+), Cell Number/μl ([1]; Jul 14): 1274 Cell Number/μl; Total B (CD19+), Cell Number/μl ([1]; Jul 14): 54 Cell Number/μl; Total NK (CD16+/CD56+), Cell Number/μl ([1]; Jul 14): 759 Cell Number/μl; Total T (CD3+), Cell Number/μl ([1]; Jul 14): 1897 Cell Number/μl; Ratio T Helper Cells/ CD3, CD4/CD3, CD8 ([1]; Jul 14): 0.45; Total NK (CD16+/CD56+), Percent ([1]; Jul 14): 28%; Total B (CD19+), Percent ([1]; Jul 14): 2%; T Suppressor (CD3+, CD8+), Percent ([1]; Jul 14): 47%; T Helper (CD3+, CD4+), Percent ([1]; Jul 14): 21%; Lymphocytes T + B + NK, Percent ([1]; Jul 14): 100%; Numbers of T cell sub-types ([1]; platinum compound and MEK for about two months): did not decrease but increased instead; progress of the tumor ([2]; CT and MRI examination): slowed and partially disappeared; appetite and sleep ([2]; after the therapy): improved; blood pressure, pulse and liver and stomach functions ([2]; after the therapy): normal; influenza infection ([2]; during the influenza epidemic, hospital ward): not infected; side effects in the GI, respiratory, skin, and peripheral circulation systems ([2]; during therapy with radiation, chemo, and MEK): no side effects; white blood cell counts and lymphocytes ([2]; during therapy with radiation, chemo, and MEK, MEK IV 30-120 μg/kg): decreased to some extent; CD3/CD4 sub-group of T lymphocytes ([2]; monitored monthly): increased; CD3/CD8 and total CD3 subgroups ([2]; monitored monthly): decreased; total numbers of NK cells ([2]; monitored monthly): increased; side effects among the patients treated ([3]; MEK as supplemental agent with chemo and/or radiation therapies): helped to eliminate or reduce the extent of many side effects; Total NK (CD16+CD56) Natural killer cells, Cells/μl ([3]; 1 month after MEK): 177 Cells/μl; Total T Cells, Cells/μl ([3]; 1 month after MEK): 655 Cells/μl; CD4/CD3(CD8) ([3]; 1 month after MEK): 0; Total NK (CD16+CD56) Natural killer cells, in percent of total ([3]; 1 month after MEK): 22% of total; Total T Cells, in percent of total ([3]; 1 month after MEK): 60% of total; Total Lymphocytes (T+B+NK), in percent of total ([3]; 1 month after MEK): 102% of total; Total NK (CD16+CD56) Natural killer cells, Cells/μl ([3]; 2 months after MEK): 189 Cells/μl; Total T Cells, Cells/μl ([3]; 2 months after MEK): 587 Cells/μl; CD4/CD3(CD8) ([3]; 2 months after MEK): 1.62; Total NK (CD16+CD56) Natural killer cells, in percent of total ([3]; 2 months after MEK): 21% of total; Total T Cells, in percent of total ([3]; 2 months after MEK): 66% of total; Total Lymphocytes (T+B+NK), in percent of total ([3]; 2 months after MEK): 100% of total; Total NK (CD16+CD56) Natural killer cells, Cells/μl ([3]; 3 months after MEK): 306 Cells/μl; Total T Cells, Cells/μl ([3]; 3 months after MEK): 539 Cells/μl; CD4/CD3(CD8) ([3]; 3 months after MEK): 1.51; Total NK (CD16+CD56) Natural killer cells, in percent of total ([3]; 3 months after MEK): 29% of total; Total T Cells, in percent of total ([3]; 3 months after MEK): 67% of total; Total Lymphocytes (T+B+NK), in percent of total ([3]; 3 months after MEK): 104% of total; Total NK (CD16+CD56) Natural killer cells, Cells/μl ([3]; 4 months after MEK): 349 Cells/μl; Total T Cells, Cells/μl ([3]; 4 months after MEK): 694 Cells/μl; CD4/CD3(CD8) ([3]; 4 months after MEK): 1.53; Total NK (CD16+CD56) Natural killer cells, in percent of total ([3]; 4 months after MEK): 26% of total; Total T Cells, in percent of total ([3]; 4 months after MEK): 79% of total; Total Lymphocytes (T+B+NK), in percent of total ([3]; 4 months after MEK): 103% of total; Total NK (CD16+CD56) Natural killer cells, Cells/μl ([3]; 5 months after MEK): 368 Cells/μl; Total T Cells, Cells/μl ([3]; 5 months after MEK): 637 Cells/μl; CD4/CD3(CD8) ([3]; 5 months after MEK): 1.80; Total NK (CD16+CD56) Natural killer cells, in percent of total ([3]; 5 months after MEK): 25% of total; Total T Cells, in percent of total ([3]; 5 months after MEK): 73% of total; Total Lymphocytes (T+B+NK), in percent of total ([3]; 5 months after MEK): 102% of total; Total NK (CD16+CD56) Natural killer cells, Cells/μl ([3]; 6 months after MEK): 359 Cells/μl; Total T Cells, Cells/μl ([3]; 6 months after MEK): 568 Cells/μl; CD4/CD3(CD8) ([3]; 6 months after MEK): 1.61; Total NK (CD16+CD56) Natural killer cells, in percent of total ([3]; 6 months after MEK): 27% of total; Total T Cells, in percent of total ([3]; 6 months after MEK): 80% of total; Total Lymphocytes (T+B+NK), in percent of total ([3]; 6 months after MEK): 103% of total; CD4/CD3(CD8), NK (CD16+CD56), and total T cells ([3]; cancer patients, MEK in conjunction with chemo and/or radiation therapies, after one month of MEK administration): either were maintained normally or increased

From patent US20100016209A1, “Methods of Reducing Side Effects in Cancer Therapy” (priority 2005, published 2010)
